Test results taken from ChEMBL document CHEMBL1129422, “Syntheses and structure-activity relationships of the second-generation antitumor taxoids: exceptional activity against drug-resistant cancer cells” (J Med Chem, 1996).

Experiments:
A2780 [1] = assay: Cytotoxicity against A2780-DX5, Doxorubicin-resistant Ovarian carcinoma cell line; assay type: functional, cell-based, Homo sapiens; details: Homo sapiens, A2780
A2780 [2] = assay: Cytotoxicity against A2780-WT, human ovarian carcinoma cell line; assay type: functional, cell-based; details: Homo sapiens, A2780
A2780 [3] = assay: Cytotoxicity against A2780-C25, oxaliplatin-resistant Ovarian carcinoma cell line; assay type: functional, cell-based, Homo sapiens; details: Homo sapiens, A2780
A2780 [4] = assay: Cytotoxicity against A2780-CP3, cisplatin-resistant Ovarian carcinoma cell line; assay type: functional, cell-based, Homo sapiens; details: Homo sapiens, A2780
Mus musculus [5] = assay: Tumor growth inhibition of B16 melanoma implanted sc in B6D2F1 mice when 0.4 mL/mouse administered i.v. on day 5 at 20 mg/kg/day; assay type: functional; details: route intravenous
Mus musculus [6] = assay: Tumor growth delay of B16 melanoma implanted sc in B6D2F1 mice when 0.4 mL/mouse administered i.v. on day 7 at 12.4 mg/kg/day; assay type: functional; details: route intravenous
Mus musculus [7] = assay: Log cell kill = T-C(days)/3.32xTd (Tumor doubling time in days, 1.4 in this assay ) on day 5 at 20 mg/kg/day in B16 melanoma implanted sc in B6D2F1 mice; assay type: ADME, organism-based; design: route subcutaneous; details: in vivo
Mus musculus [8] = assay: Tumor growth delay of B16 melanoma implanted sc in B6D2F1 mice when 0.4 mL/mouse administered i.v. on day 9 at 7.7 mg/kg/day; assay type: functional; details: route intravenous
Mus musculus [9] = assay: Tumor growth inhibition of B16 melanoma implanted sc in B6D2F1 mice when 0.4 mL/mouse administered i.v. on day 7 at 12.4 mg/kg/day; assay type: functional; details: route intravenous
Mus musculus [10] = assay: Tumor growth inhibition of B16 melanoma implanted sc in B6D2F1 mice when 0.4 mL/mouse administered i.v. on day 9 at 7.7 mg/kg/day; assay type: functional; details: route intravenous
Mus musculus [11] = assay: Log cell kill = T-C(days)/3.32xTd (Tumor doubling time in days, 1.4 in this assay )on day 7 at 12.4 mg/kg/day in B16 melanoma implanted sc in B6D2F1 mice; assay type: ADME, organism-based; design: route subcutaneous; details: in vivo
Mus musculus [12] = assay: Log cell kill = T-C(days)/3.32xTd (Tumor doubling time in days, 1.4 in this assay )on day 9 at 7.7 mg/kg/day in B16 melanoma implanted sc in B6D2F1 mice; assay type: ADME, organism-based; design: route subcutaneous; details: in vivo
A121 = assay: Concentration required to inhibit growth of human tumor A121 (ovarian) cell line.; assay type: functional, cell-based
A549 = assay: Concentration required to inhibit growth of human tumor A549 (NSCL) cell line.; assay type: functional, cell-based
MCF7 [13] = assay: Concentration required to inhibit growth of human tumor […] (breast) cell line.; assay type: functional, cell-based
HT-29 = assay: Concentration required to inhibit growth of human tumor HT-29 (colon) cell line.; assay type: functional, cell-based
MCF7 [14] = assay: Concentration required to inhibit growth of human tumor MCF-7 (breast) cell line.; assay type: functional, cell-based
Mus musculus [15] = assay: Tumor growth inhibition of B16 melanoma implanted sc in B6D2F1 mice when 0.4 mL/mouse administered i.v. on day 7 at 7.7 mg/kg/day; assay type: functional; details: route intravenous
Mus musculus [16] = assay: Tumor growth delay of B16 melanoma implanted sc in B6D2F1 mice when 0.4 mL/mouse administered i.v. on day 5 at 12.4 mg/kg/day; assay type: functional; details: route intravenous
Mus musculus [17] = assay: Log cell kill = T-C(days)/3.32xTd (Tumor doubling time in days, 1.4 in this assay )on day 9 at 4.8 mg/kg/day in B16 melanoma implanted sc in B6D2F1 mice; assay type: ADME, organism-based; design: route subcutaneous; details: in vivo
Mus musculus [18] = assay: Log cell kill = T-C(days)/3.32xTd (Tumor doubling time in days, 1.4 in this assay ) on day 5 at 12.4 mg/kg/day in B16 melanoma implanted sc in B6D2F1 mice; assay type: ADME, organism-based; design: route subcutaneous; details: in vivo
Mus musculus [19] = assay: Tumor growth delay of B16 melanoma implanted sc in B6D2F1 mice when 0.4 mL/mouse administered i.v. on day 7 at 7.7 mg/kg/day; assay type: functional; details: route intravenous
Mus musculus [20] = assay: Tumor growth delay of B16 melanoma implanted sc in B6D2F1 mice when 0.4 mL/mouse administered i.v. on day 9 at 4.8 mg/kg/day; assay type: functional; details: route intravenous
Mus musculus [21] = assay: Log cell kill = T-C(days)/3.32xTd (Tumor doubling time in days, 1.4 in this assay )on day 7 at 7.7 mg/kg/day in B16 melanoma implanted sc in B6D2F1 mice; assay type: ADME, organism-based; design: route subcutaneous; details: in vivo
Mus musculus [22] = assay: Tumor growth inhibition of B16 melanoma implanted sc in B6D2F1 mice when 0.4 mL/mouse administered i.v. on day 9 at 4.8 mg/kg/day; assay type: functional; details: route intravenous
Mus musculus [23] = assay: Tumor growth inhibition of B16 melanoma implanted sc in B6D2F1 mice when 0.4 mL/mouse administered i.v. on day 5 at 12.4 mg/kg/day; assay type: functional; details: route intravenous

IC50 (A549) [nM]	IC50 (MCF7 [13]) [nM]	IC50 (HT-29) [nM]	IC50 (MCF7 [14]) [nM]	Compound	IC50 (A2780 [1]) [nM]	IC50 (A2780 [2]) [nM]	IC50 (A2780 [3]) [nM]	IC50 (A2780 [4]) [nM]	IC50 (A121) [nM]	also measured
				COc1cccc2c1C(=O)c1c(O)c3c(c(O)c1C2=O)C[C@@](O)(C(=O)CO)C[C@@H]3O[C@H]1C[C@H](N)[C@H](O)[C@H](C)O1 [DOXORUBICIN]	357	5	63	56		
				CC(=O)O[C@@]12CO[C@@H]1C[C@H](O)[C@@]1(C)C(=O)[C@H](O)C3=C(C)[C@@H](OC(=O)[C@H](O)[C@@H](NC(=O)OC(C)(C)C)c4ccccc4)C[C@@](O)([C@@H](OC(=O)c4ccccc4)[C@H]21)C3(C)C.O.O.O [DOCETAXEL]	122	1.2	1	1.4		T/C (Mus musculus [5]): 0%; T-C (Mus musculus [6]): 7.1 days; Log 10 cell kill (Mus musculus [7]): 3.3; T-C (Mus musculus [8]): 4.3 days; T/C (Mus musculus [9]): 7%; T/C (Mus musculus [10]): 8%; Log 10 cell kill (Mus musculus [11]): 1.5; Log 10 cell kill (Mus musculus [12]): 0.9
0.27	12	0.63	0.55	CC(=O)O[C@H]1C(=O)[C@@]2(C)[C@H]([C@H](OC(=O)c3ccccc3)[C@]3(O)C[C@H](OC(=O)[C@H](O)[C@H](C=C(C)C)NC(=O)OC(C)(C)C)C(C)=C1C3(C)C)[C@]1(OC(C)=O)CO[C@@H]1C[C@@H]2O	5.7	0.4	0.3	0.36	0.46	
0.29	2.2	0.31	0.18	CCC(=O)O[C@H]1C(=O)[C@@]2(C)[C@H]([C@H](OC(=O)c3ccccc3)[C@]3(O)C[C@H](OC(=O)[C@H](O)[C@H](C=C(C)C)NC(=O)OC(C)(C)C)C(C)=C1C3(C)C)[C@]1(OC(C)=O)CO[C@@H]1C[C@@H]2O					0.12	T/C (Mus musculus [15]): 0%; T-C (Mus musculus [16]): 10.9 days; Log 10 cell kill (Mus musculus [17]): 0.6; Log 10 cell kill (Mus musculus [18]): 2.3; T-C (Mus musculus [19]): 9.3 days; T-C (Mus musculus [20]): 3 days; Log 10 cell kill (Mus musculus [21]): 2; T/C (Mus musculus [22]): 34%; T/C (Mus musculus [23]): 0%
